Assay results from patent publication US20240210412A1, “SULFONYL-TRIAZOLE COMPOUNDS USEFUL AS LIGANDS AND INHIBITORS OF PROSTAGLANDIN REDUCTASE 2” (University of Virginia Patent Foundation, priority 2021, published 2024).

Tests used:
Test in all cases: SILAC LC-MS ABPP
Format in all cases: cell-based
Conditions in all cases: 25 μM 2 h, live DM93 cells
Q9UJ68 = molecular target: T1, Q9UJ68 (Homo sapiens, UniProt Q9UJ68)
T1 construct: endogenous in cells; host or cells: DM93 cells (SILAC)
Procedure, shortened: (§1)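 Quantification uses SILAC ratios from LC-MS/MS of probe-modified tyrosine peptides. DM93 melanoma cells: heavy treated with 25 μM SuTEx ligand, light with DMSO (2 h, 37 °C), followed by HHS-475 probe at 100 μM for 2 h.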

O95757 = molecular target: T2, O95757 (Homo sapiens, UniProt O95757)
T2 construct: endogenous in cells; host or cells: DM93 cells (SILAC)
Procedure, shortened: as §1

Q14847 = molecular target: T3, Q14847 (Homo sapiens, UniProt Q14847)
T3 construct: performing SuTEx compound screening directly in cells; endogenous in cells; host or cells: DM93 cells (SILAC), soluble fraction
T3 sequence (Q14847 whole entry): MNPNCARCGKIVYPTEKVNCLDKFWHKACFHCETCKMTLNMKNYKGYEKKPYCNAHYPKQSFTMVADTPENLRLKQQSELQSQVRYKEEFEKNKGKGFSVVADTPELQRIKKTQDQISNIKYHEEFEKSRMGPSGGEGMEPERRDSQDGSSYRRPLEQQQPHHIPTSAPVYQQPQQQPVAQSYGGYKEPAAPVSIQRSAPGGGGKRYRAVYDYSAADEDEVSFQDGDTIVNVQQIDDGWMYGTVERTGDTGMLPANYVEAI
Procedure, shortened: as §1

Q8IX04 = molecular target: T4, Q8IX04 (Homo sapiens, UniProt Q8IX04)
T4 construct: endogenous in cells; host or cells: DM93 cells (SILAC), live-cell treatment
T4 sequence (Q8IX04 whole entry): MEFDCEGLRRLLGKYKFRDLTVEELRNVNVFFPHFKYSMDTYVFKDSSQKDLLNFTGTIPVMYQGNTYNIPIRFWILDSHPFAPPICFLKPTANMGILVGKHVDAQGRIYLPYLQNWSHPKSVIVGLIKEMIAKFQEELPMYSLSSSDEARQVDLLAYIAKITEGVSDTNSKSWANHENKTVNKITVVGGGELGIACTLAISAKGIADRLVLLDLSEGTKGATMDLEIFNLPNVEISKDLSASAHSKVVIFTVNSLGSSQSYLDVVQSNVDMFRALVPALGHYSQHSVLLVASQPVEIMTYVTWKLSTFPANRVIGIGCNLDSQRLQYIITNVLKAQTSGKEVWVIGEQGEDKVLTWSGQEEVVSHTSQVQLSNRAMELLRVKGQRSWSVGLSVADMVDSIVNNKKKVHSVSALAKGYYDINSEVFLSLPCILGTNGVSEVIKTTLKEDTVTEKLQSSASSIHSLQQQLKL
Procedure, shortened: as §1

Q9NUJ1 = molecular target: T5, Q9NUJ1 (Homo sapiens, UniProt Q9NUJ1)
T5 construct: endogenous in cells; host or cells: DM93 cells (SILAC), treated live; soluble proteome analysed
T5 sequence (Q9NUJ1 53-306): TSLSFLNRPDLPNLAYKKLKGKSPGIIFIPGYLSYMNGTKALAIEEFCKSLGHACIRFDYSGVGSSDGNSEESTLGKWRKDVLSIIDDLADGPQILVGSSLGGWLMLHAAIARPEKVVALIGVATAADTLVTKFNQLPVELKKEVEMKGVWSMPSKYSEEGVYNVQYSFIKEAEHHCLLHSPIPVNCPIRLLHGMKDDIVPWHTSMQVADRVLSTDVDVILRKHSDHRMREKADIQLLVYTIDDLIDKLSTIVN
Procedure, shortened: as §1

Q00535 = molecular target: T6, Q00535 (Homo sapiens, UniProt Q00535)
T6 construct: performing SuTEx compound screening directly in cells; endogenous in cells; host or cells: DM93 cells (SILAC)
Procedure, shortened: as §1

Q9BWT3 = molecular target: T7, Q9BWT3 (Homo sapiens, UniProt Q9BWT3)
T7 construct: endogenous in cells; host or cells: DM93 cells (SILAC), treated live; soluble proteome analysed
Procedure, shortened: as §1

Q99797 = molecular target: T8, Q99797 (Homo sapiens, UniProt Q99797)
T8 construct: endogenous in cells; host or cells: DM93 cells (SILAC), treated live; soluble proteome analysed
Procedure, shortened: as §1

Q86XP3 = molecular target: T9, Q86XP3 (Homo sapiens, UniProt Q86XP3)
T9 construct: endogenous in cells; host or cells: DM93 cells (SILAC), live-cell treatment
Procedure, shortened: as §1

Q9C0C2 = molecular target: T10, Q9C0C2 (Homo sapiens, UniProt Q9C0C2)
T10 construct: endogenous in cells; host or cells: DM93 cells (SILAC), treated live; soluble proteome analysed
Procedure, shortened: as §1

P20839 = molecular target: T11, P20839 (Homo sapiens, UniProt P20839)
T11 construct: endogenous in cells; host or cells: DM93 (SILAC)
Procedure, shortened: as §1

P62979 = molecular target: T12, P62979 (Homo sapiens, UniProt P62979)
T12 construct: performing SuTEx compound screening directly in cells; endogenous in cells; host or cells: DM93 cells (SILAC)
Procedure, shortened: as §1

O75351 = molecular target: T13, O75351 (Homo sapiens, UniProt O75351)
T13 construct: endogenous in cells; host or cells: DM93
T13 sequence (O75351 whole entry): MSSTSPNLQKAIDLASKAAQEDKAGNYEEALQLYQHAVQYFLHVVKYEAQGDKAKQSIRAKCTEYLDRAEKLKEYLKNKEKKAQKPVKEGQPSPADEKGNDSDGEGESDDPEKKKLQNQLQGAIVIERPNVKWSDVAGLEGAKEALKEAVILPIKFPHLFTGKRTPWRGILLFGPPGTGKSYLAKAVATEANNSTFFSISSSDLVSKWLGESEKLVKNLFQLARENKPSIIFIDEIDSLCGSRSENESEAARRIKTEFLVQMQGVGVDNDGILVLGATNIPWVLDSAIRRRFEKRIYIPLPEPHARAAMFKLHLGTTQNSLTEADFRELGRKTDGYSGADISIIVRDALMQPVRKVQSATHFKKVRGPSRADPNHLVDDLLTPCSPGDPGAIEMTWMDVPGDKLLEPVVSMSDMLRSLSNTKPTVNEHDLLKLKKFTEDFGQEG
Procedure, shortened: as §1

P46013 = molecular target: T14, P46013 (Homo sapiens, UniProt P46013)
T14 construct: endogenous in cells; host or cells: DM93 cells (SILAC)
T14 sequence (P46013 whole entry): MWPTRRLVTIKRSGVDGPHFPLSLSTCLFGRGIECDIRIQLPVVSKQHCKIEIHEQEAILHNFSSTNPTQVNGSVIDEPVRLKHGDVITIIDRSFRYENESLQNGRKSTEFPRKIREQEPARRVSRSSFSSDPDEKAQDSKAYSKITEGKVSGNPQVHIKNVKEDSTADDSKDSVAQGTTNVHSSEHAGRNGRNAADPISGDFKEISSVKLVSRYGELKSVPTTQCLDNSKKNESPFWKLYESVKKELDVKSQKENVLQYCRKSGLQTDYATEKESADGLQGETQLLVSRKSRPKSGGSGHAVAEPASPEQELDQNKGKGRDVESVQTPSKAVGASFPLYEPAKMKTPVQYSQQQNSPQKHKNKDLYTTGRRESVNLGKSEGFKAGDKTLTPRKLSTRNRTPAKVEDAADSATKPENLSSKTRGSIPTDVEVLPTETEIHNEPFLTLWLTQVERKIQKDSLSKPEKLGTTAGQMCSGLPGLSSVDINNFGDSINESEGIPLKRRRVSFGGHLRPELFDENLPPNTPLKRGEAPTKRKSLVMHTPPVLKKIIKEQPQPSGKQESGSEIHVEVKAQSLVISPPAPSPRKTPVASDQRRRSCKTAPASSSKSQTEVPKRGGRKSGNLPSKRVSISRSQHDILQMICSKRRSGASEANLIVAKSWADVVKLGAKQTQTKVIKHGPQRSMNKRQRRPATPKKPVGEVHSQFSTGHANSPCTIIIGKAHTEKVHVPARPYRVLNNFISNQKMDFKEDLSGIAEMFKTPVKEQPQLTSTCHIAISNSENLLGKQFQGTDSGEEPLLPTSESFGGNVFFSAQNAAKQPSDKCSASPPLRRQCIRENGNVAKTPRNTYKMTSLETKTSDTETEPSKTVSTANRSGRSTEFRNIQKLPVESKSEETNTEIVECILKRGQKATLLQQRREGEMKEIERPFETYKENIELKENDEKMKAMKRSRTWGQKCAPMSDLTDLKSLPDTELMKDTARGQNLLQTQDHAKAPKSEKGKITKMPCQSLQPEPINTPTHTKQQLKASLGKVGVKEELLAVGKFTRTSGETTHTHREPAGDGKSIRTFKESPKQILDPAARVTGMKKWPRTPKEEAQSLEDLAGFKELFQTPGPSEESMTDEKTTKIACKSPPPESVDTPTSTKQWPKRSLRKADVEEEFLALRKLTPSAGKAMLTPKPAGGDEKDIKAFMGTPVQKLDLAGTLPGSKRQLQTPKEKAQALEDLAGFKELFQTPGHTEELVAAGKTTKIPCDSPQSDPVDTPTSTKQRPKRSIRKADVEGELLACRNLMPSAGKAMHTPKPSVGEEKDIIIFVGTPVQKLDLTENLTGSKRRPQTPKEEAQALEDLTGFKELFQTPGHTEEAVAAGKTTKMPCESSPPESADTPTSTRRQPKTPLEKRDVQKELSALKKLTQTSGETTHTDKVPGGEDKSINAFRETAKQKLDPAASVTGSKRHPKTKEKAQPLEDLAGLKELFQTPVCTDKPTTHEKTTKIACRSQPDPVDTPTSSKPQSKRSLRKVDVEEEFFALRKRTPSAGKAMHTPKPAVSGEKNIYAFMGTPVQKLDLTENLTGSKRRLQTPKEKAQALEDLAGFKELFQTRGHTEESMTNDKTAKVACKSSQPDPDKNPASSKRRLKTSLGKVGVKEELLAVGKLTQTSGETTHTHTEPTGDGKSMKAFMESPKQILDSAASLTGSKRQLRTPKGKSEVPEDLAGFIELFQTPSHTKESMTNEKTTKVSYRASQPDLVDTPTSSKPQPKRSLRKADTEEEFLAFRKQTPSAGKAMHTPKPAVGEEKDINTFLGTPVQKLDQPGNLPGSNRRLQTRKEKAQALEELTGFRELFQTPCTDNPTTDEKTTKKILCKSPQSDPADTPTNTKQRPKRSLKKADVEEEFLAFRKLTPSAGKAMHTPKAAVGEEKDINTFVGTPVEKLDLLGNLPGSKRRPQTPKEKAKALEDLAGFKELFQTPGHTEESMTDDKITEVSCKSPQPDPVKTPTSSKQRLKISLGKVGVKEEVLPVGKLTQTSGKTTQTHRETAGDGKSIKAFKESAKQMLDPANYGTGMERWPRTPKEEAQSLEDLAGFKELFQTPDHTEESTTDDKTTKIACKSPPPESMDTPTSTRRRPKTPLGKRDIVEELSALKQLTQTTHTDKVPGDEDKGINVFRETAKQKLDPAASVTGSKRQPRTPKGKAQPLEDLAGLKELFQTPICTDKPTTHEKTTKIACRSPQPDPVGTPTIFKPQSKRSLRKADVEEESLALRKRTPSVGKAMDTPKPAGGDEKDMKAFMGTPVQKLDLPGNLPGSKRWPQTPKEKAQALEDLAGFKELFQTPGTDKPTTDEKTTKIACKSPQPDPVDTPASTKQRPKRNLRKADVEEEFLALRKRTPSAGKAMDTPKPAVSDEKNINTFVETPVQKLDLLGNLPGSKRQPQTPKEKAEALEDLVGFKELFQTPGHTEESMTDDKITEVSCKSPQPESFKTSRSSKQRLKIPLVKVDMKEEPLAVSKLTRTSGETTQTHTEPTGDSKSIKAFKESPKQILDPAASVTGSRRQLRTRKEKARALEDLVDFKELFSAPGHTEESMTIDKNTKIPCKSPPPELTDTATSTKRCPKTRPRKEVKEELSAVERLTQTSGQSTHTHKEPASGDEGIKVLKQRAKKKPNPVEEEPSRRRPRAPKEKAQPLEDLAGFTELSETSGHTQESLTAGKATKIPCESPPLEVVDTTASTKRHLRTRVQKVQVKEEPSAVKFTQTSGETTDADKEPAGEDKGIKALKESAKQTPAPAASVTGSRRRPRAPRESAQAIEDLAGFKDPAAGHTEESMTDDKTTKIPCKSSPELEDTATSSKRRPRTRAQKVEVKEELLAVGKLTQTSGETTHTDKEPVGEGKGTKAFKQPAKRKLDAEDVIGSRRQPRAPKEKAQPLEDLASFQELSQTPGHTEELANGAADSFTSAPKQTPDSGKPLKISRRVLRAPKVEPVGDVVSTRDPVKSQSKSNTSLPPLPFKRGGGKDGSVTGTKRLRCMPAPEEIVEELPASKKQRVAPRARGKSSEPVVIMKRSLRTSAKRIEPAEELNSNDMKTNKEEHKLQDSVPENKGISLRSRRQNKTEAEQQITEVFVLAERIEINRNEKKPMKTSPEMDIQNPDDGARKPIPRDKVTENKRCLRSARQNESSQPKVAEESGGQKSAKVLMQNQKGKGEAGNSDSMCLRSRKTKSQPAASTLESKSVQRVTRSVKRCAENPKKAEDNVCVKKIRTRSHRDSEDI
Procedure, shortened: as §1

Q8N6H7 = molecular target: T15, Q8N6H7 (Homo sapiens, UniProt Q8N6H7)
T15 construct: endogenous in cells; host or cells: DM93 cells (SILAC), live-cell treatment
Procedure, shortened: as §1

Q12931 = molecular target: T16, Q12931 (Homo sapiens, UniProt Q12931)
T16 construct: performing SuTEx compound screening directly in cells; endogenous in cells; host or cells: DM93 cells (SILAC)
Procedure, shortened: as §1

P82650 = molecular target: T17, P82650 (Homo sapiens, UniProt P82650)
T17 construct: performing SuTEx compound screening directly in cells; endogenous in cells; host or cells: DM93 cells (SILAC)
Procedure, shortened: as §1

Q9BPW8 = molecular target: T18, Q9BPW8 (Homo sapiens, UniProt Q9BPW8)
T18 construct: endogenous in cells; host or cells: DM93 cells (SILAC), treated live; soluble proteome analysed
Procedure, shortened: as §1

T1 sequence (Q9UJ68 24-235): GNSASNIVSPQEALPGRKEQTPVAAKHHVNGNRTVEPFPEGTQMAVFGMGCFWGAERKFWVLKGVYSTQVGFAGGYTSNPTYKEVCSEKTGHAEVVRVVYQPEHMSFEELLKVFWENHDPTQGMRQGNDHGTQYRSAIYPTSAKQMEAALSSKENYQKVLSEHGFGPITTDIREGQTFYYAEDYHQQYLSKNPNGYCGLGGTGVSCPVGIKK

Structure (SMILES): O=C(NC1CC1)c1ccc(S(=O)(=O)n2cncn2)cc1 [HHS-0101, 4-((1H-1,2,4-triazol-1-yl)sulfonyl)-N-cyclopropylbenzamide]
- liganded tyrosine site 211 (Q9UJ68): HHS0101.Y|HHS0401.Y|HHS0701.Y (tyrosine sites that showed >80% reductions (SR >5) in probe labeling in cells treated with compounds (liganded sites))
- liganded tyrosine site 639 (O95757): HHS0101.Y|HHS0301.Y|HHS0401.Y (tyrosine sites that showed >80% reductions (SR >5) in probe labeling in cells treated with compounds (liganded sites))
- liganded tyrosine site 57 (Q14847): HHS0101.Y (tyrosine sites that showed >80% reductions (SR >5) in probe labeling in cells treated with compounds (liganded sites))
- liganded tyrosine site 158 (Q8IX04): HHS0101.Y|HHS0201.Y|HHS0301.Y (tyrosine sites that showed >80% reductions (SR >5) in probe labeling in cells treated with compounds (liganded sites))

Structure (SMILES): O=C(NCC1CC1)c1ccc(S(=O)(=O)n2cncn2)cc1 [HHS-0201, 4-((1H-1,2,4-triazol-1-yl)sulfonyl)-N-(cyclopropylmethyl)benzamide]
- liganded tyrosine site 215 (Q9NUJ1): HHS0201.Y|HHS0701.Y (tyrosine sites that showed >80% reductions (SR >5) in probe labeling in cells treated with compounds (liganded sites))
- liganded tyrosine site 242 (Q00535): HHS0201.Y (tyrosine sites that showed >80% reductions (SR >5) in probe labeling in cells treated with compounds (liganded sites))
- liganded tyrosine site 326 (Q9BWT3): HHS0201.Y|HHS0701.Y (tyrosine sites that showed >80% reductions (SR >5) in probe labeling in cells treated with compounds (liganded sites))
- liganded tyrosine site 273 (Q99797): HHS0201.Y (tyrosine sites that showed >80% reductions (SR >5) in probe labeling in cells treated with compounds (liganded sites))
- liganded tyrosine site 685 (Q86XP3): HHS0201.Y (tyrosine sites that showed >80% reductions (SR >5) in probe labeling in cells treated with compounds (liganded sites))
- liganded tyrosine site 897 (Q9C0C2): HHS0201.Y|HHS0301.Y|HHS0401.Y|HHS0701.Y (tyrosine sites that showed >80% reductions (SR >5) in probe labeling in cells treated with compounds (liganded sites))

Structure (SMILES): O=C(NCc1ccccc1)c1ccc(S(=O)(=O)n2cncn2)cc1 [HHS-0401, 4-((1H-1,2,4-triazol-1-yl)sulfonyl)-N-benzylbenzamide]
- liganded tyrosine site 233 (P20839): HHS0401.Y (tyrosine sites that showed >80% reductions (SR >5) in probe labeling in cells treated with compounds (liganded sites))
- liganded tyrosine site 148 (P62979): HHS0401.Y (tyrosine sites that showed >80% reductions (SR >5) in probe labeling in cells treated with compounds (liganded sites))
- liganded tyrosine site 47 (O75351): HHS0401.Y (tyrosine sites that showed >80% reductions (SR >5) in probe labeling in cells treated with compounds (liganded sites))
- liganded tyrosine site 340 (P46013): HHS0401.Y|HHS0701.Y (tyrosine sites that showed >80% reductions (SR >5) in probe labeling in cells treated with compounds (liganded sites))

Structure (SMILES): O=C(c1ccc(S(=O)(=O)n2cncn2)cc1)N1CCC(c2ccccc2)CC1 [HHS-0701, (4-((1H-1,2,4-triazol-1-yl)sulfonyl)phenyl)(4-phenylpiperidin-1-yl)methanone]
- liganded tyrosine site 445 (Q8N6H7): HHS0701.Y (tyrosine sites that showed >80% reductions (SR >5) in probe labeling in cells treated with compounds (liganded sites))
- liganded tyrosine site 559 (Q12931): HHS0701.Y (tyrosine sites that showed >80% reductions (SR >5) in probe labeling in cells treated with compounds (liganded sites))
- liganded tyrosine site 163 (P82650): HHS0701.Y (tyrosine sites that showed >80% reductions (SR >5) in probe labeling in cells treated with compounds (liganded sites))
- liganded tyrosine site 83 (Q9BPW8): HHS0701.Y (tyrosine sites that showed >80% reductions (SR >5) in probe labeling in cells treated with compounds (liganded sites))
